For this assay, the system named is mice, LPC-1 plasma cell tumor ip, median survival T/C. The assay is described as follows: NCI In Vivo Anticancer Drug Screen. Data for tumor model Lieberman Plasma Cell No. 1 (LPC-1) (intraperitoneal) in unknown mice. The conditions noted are these: endpoint: median survival time, higher = longer survival. As for the experimental part: The antitumor activity of compounds was measured in mice bearing transplantable tumors. Survival or tumor size were measured and the results are expressed as the measurement made in the treated group (T) divided by the measurement made in the vehicle treated control group (C). The tumor model used in this assay is Lieberman Plasma Cell No. 1 (LPC-1) (intraperitoneal) in unknown mice

[1] abbreviates: dose: 20.0 mg/kg/injection, schedule: Q01DX028 (sc), vehicle: carboxymethylcellulose (CMC).
The mark [2] stands for this setting: dose: 40.0 mg/kg/injection, schedule: Q01DX028 (sc), vehicle: carboxymethylcellulose (CMC).
The mark [3] stands for this setting: dose: 80.0 mg/kg/injection, schedule: Q01DX028 (sc), vehicle: carboxymethylcellulose (CMC).
[4] abbreviates: dose: 180.0 mg/kg/injection, schedule: Q01DX028 (sc), vehicle: carboxymethylcellulose (CMC).
Setting [5] is: dose: 4.0 mg/kg/injection, schedule: Q01DX028 (sc), vehicle: carboxymethylcellulose (CMC).
[6] abbreviates: dose: 65.0 mg/kg/injection, schedule: Q01DX028 (sc), vehicle: carboxymethylcellulose (CMC).
Setting [7] is: dose: 108.0 mg/kg/injection, schedule: Q01DX028 (sc), vehicle: carboxymethylcellulose (CMC).

The text below walks through data of PubChem BioAssay AID344 (DTP/NCI, 2004).

Toxic doses and inconclusive results are not listed.

As for `O=c1[nH]cc(F)c(=O)[nH]1`, the T/C reads like this: (dose: 2.0 mg/kg/injection, schedule: Q01DX028 (sc), vehicle: saline) 122 % of control; (dose: 3.0 mg/kg/injection, schedule: Q01DX024 (sc), vehicle: saline) 109 % of control; (dose: 4.0 mg/kg/injection, schedule: Q01DX028 (sc), vehicle: saline) 155 % of control; (dose: 5.8 mg/kg/injection, schedule: Q01DX001 (sc), vehicle: saline) 105 % of control; (dose: 5.8 mg/kg/injection, schedule: Q01DX002 (sc), vehicle: saline) 100 % of control; (dose: 5.8 mg/kg/injection, schedule: Q01DX003 (sc), vehicle: saline) 112 % of control. Moreover, the T/C (dose: 5.8 mg/kg/injection, schedule: Q01DX004 (sc), vehicle: saline) is 110 % of control; the T/C (dose: 6.0 mg/kg/injection, schedule: Q01DX024 (sc), vehicle: saline) was 121 % of control; the T/C (dose: 6.0 mg/kg/injection, schedule: Q## X008 (sc), vehicle: saline) was 104 % of control; the T/C (dose: 6.0 mg/kg/injection, schedule: Q## X012 (sc), vehicle: saline) was 114 % of control; the T/C (dose: 8.0 mg/kg/injection, schedule: Q01DX028 (sc), vehicle: saline) is 251 % of control; the T/C (dose: 9.6 mg/kg/injection, schedule: Q01DX001 (sc), vehicle: saline) was 110 % of control. For the same molecule, the T/C by setting is: (dose: 9.6 mg/kg/injection, schedule: Q01DX002 (sc), vehicle: saline) 112 % of control; (dose: 9.6 mg/kg/injection, schedule: Q01DX003 (sc), vehicle: saline) 120 % of control; (dose: 9.6 mg/kg/injection, schedule: Q01DX004 (sc), vehicle: saline) 112 % of control; (dose: 12.0 mg/kg/injection, schedule: Q01DX024 (sc), vehicle: saline) 214 % of control; (dose: 12.0 mg/kg/injection, schedule: Q## X008 (sc), vehicle: saline) 117 % of control; (dose: 12.0 mg/kg/injection, schedule: Q## X012 (sc), vehicle: saline) 117 % of control. Besides, the T/C runs as follows: (dose: 16.0 mg/kg/injection, schedule: Q01DX001 (sc), vehicle: saline) 115 % of control; (dose: 16.0 mg/kg/injection, schedule: Q01DX002 (sc), vehicle: saline) 117 % of control; (dose: 16.0 mg/kg/injection, schedule: Q01DX028 (sc), vehicle: saline) 155 % of control; (dose: 24.0 mg/kg/injection, schedule: Q## X012 (sc), vehicle: saline) 156 % of control; (dose: 26.7 mg/kg/injection, schedule: Q01DX001 (sc), vehicle: saline) 120 % of control; (dose: 26.7 mg/kg/injection, schedule: Q01DX002 (sc), vehicle: saline) 122 % of control. Besides, the T/C was 157 % of control (dose: 26.7 mg/kg/injection, schedule: Q01DX004 (sc), vehicle: saline); 93 % of control (dose: 32.0 mg/kg/injection, schedule: Q01DX028 (sc), vehicle: saline); 107 % of control (dose: 44.5 mg/kg/injection, schedule: Q01DX003 (sc), vehicle: saline); 120 % of control (dose: 44.5 mg/kg/injection, schedule: Q01DX004 (sc), vehicle: saline); 102 % of control (dose: 48.0 mg/kg/injection, schedule: Q01DX024 (sc), vehicle: saline); 95 % of control (dose: 96.0 mg/kg/injection, schedule: Q## X008 (sc), vehicle: saline). Moreover, the T/C (dose: 96.0 mg/kg/injection, schedule: Q## X012 (sc), vehicle: saline) is 90 % of control.
In the case of `CS(=O)(=O)OCCN(CCOS(C)(=O)=O)c1ccc(C(=O)O)cc1`, the T/C by setting is: under setting [1], 205 % of control; under setting [2], 350 % of control; (dose: 55.0 mg/kg/injection, schedule: Q01DX028 (sc), vehicle: carboxymethylcellulose (CMC)) 255 % of control; under setting [3], 197 % of control; under setting [4], 105 % of control; (dose: 270.0 mg/kg/injection, schedule: Q01DX028 (sc), vehicle: carboxymethylcellulose (CMC)) 89 % of control.
Turning to `COc1ccc2c(c1)C(C)=CC(C)(C)N2`, the T/C is 110 % of control (dose: 200.0 mg/kg/injection, schedule: Q01DX028 (sc), vehicle: steriod suspending solution) and 154 % of control (dose: 400.0 mg/kg/injection, schedule: Q01DX028 (sc), vehicle: steriod suspending solution).
With `NC(Cc1c[nH]c2ccc(N(CCCl)CCCl)cc12)C(=O)O` (centres undefined), the T/C is 235 % of control (dose: 0.23 mg/kg/injection, schedule: Q01DX028 (sc), vehicle: acid diluted with saline); 276 % of control (dose: 0.39 mg/kg/injection, schedule: Q01DX028 (sc), vehicle: acid diluted with saline); 285 % of control (dose: 0.39 mg/kg/injection, schedule: Q01DX028 (sc), vehicle: other); 230 % of control (dose: 0.65 mg/kg/injection, schedule: Q01DX028 (sc), vehicle: acid diluted with saline); 164 % of control (dose: 0.65 mg/kg/injection, schedule: Q01DX028 (sc), vehicle: methylcellulose (MC)); 380 % of control (dose: 0.65 mg/kg/injection, schedule: Q01DX028 (sc), vehicle: other). In addition, the T/C runs as follows: (dose: 1.08 mg/kg/injection, schedule: Q01DX028 (sc), vehicle: methylcellulose (MC)) 119 % of control; (dose: 1.08 mg/kg/injection, schedule: Q01DX028 (sc), vehicle: other) 157 % of control; (dose: 1.8 mg/kg/injection, schedule: Q01DX028 (sc), vehicle: acid diluted with saline) 107 % of control; (dose: 1.8 mg/kg/injection, schedule: Q01DX028 (sc), vehicle: other) 114 % of control; (dose: 3.0 mg/kg/injection, schedule: Q01DX028 (sc), vehicle: acid diluted with saline) 97 % of control; (dose: 3.0 mg/kg/injection, schedule: Q01DX028 (sc), vehicle: other) 102 % of control.
`C/C(=N\N=C(N)N)c1ccc(NC(=O)Nc2ccc(/C(C)=N/N=C(N)N)cc2)cc1`: the T/C was 94 % of control (dose: 10.0 mg/kg/injection, schedule: Q01DX028 (sc), vehicle: carboxymethylcellulose (CMC)); 102 % of control under setting [1]; 105 % of control under setting [2]; 100 % of control under setting [3].
Regarding `Cn1cnc([N+](=O)[O-])c1Sc1nc(N)nc2nc[nH]c12`, the T/C (dose: 0.5 mg/kg/injection, schedule: Q01DX028 (sc), vehicle: carboxymethylcellulose (CMC)) was 97 % of control; the T/C (dose: 1.0 mg/kg/injection, schedule: Q01DX028 (sc), vehicle: carboxymethylcellulose (CMC)) was 117 % of control; the T/C under setting [5] is 100 % of control.
As for `CN(C)c1ccc(/C=C/c2ccnc3ccccc23)cc1`, the T/C is 95 % of control (dose: 2.0 mg/kg/injection, schedule: Q01DX028 (sc), vehicle: carboxymethylcellulose (CMC)); 100 % of control under setting [5]; 95 % of control (dose: 8.0 mg/kg/injection, schedule: Q01DX028 (sc), vehicle: carboxymethylcellulose (CMC)); 92 % of control (dose: 16.0 mg/kg/injection, schedule: Q01DX028 (sc), vehicle: carboxymethylcellulose (CMC)); 105 % of control (dose: 23.0 mg/kg/injection, schedule: Q01DX028 (sc), vehicle: carboxymethylcellulose (CMC)); 100 % of control (dose: 32.0 mg/kg/injection, schedule: Q01DX028 (sc), vehicle: carboxymethylcellulose (CMC)). Also, the T/C reads like this: (dose: 39.0 mg/kg/injection, schedule: Q01DX028 (sc), vehicle: carboxymethylcellulose (CMC)) 97 % of control; under setting [6], 100 % of control; under setting [7], 95 % of control; under setting [4], 95 % of control.
`O=CN(O)CC(=O)O`: the T/C runs as follows: under setting [6], 93 % of control; under setting [7], 90 % of control; under setting [4], 90 % of control; (dose: 300.0 mg/kg/injection, schedule: Q01DX028 (sc), vehicle: carboxymethylcellulose (CMC)) 93 % of control; (dose: 500.0 mg/kg/injection, schedule: Q01DX028 (sc), vehicle: carboxymethylcellulose (CMC)) 95 % of control; (dose: 833.0 mg/kg/injection, schedule: Q01DX028 (sc), vehicle: carboxymethylcellulose (CMC)) 95 % of control.
